According to patent US20230338362A1 (priority 2020, published 2023):
Read-outs that look alike come from different tables or passages of the source.

What was measured:
[1] = system: SARS-CoV; format: cell-based
[2] = system: Influenza A; test: In vitro activity against Influenza A, methods analogous to Example 1; format: cell-based
[3] = system: common cold coronavirus; test: In vitro activity against common cold coronaviruses, methods analogous to Example 1; format: cell-based
[4] = system: Influenza B; test: In vitro activity against Influenza B, methods analogous to Example 1; format: cell-based
[5] = system: SARS-CoV-2; test: SARS-CoV-2 inhibition, cell viability assay (CellTiter-Glo) in VERO-E6 cells enriched for ACE-2; format: cell-based
[6] = system: MERS-CoV; format: cell-based
[7] = system: macrophages treated with SARS-CoV-2 Spike protein; format: cell-based, human; note: test concentration or dose not given here
[8] = system: macrophages treated with SARS-CoV-2 Spike protein; format: cell-based, human; remark: listed apart in the source; note: test concentration or dose not given here
[9] = system: VERO-E6 cells enriched for angiotensin converting enzyme 2 receptor (ACE-2); test: In vitro toxicity, cell viability assay in VERO-E6 cells in the absence of virus; settings: Table I, positive controls; absence of SARS-CoV-2 virus
[10] = Severe acute respiratory syndrome coronavirus 2, Vero C1008; Table II, antiviral compounds; VERO-E6 cells enriched for ACE-2 plus SARS-CoV-2; read-out: IC50
[11] = Severe acute respiratory syndrome coronavirus 2, Vero C1008; read-out: IC50 in an in vitro inhibition assay against SARS-CoV-2

Row | SMILES | activity against SARS-CoV [1] | activity against Influenza A [2] | activity against common cold coronavirus [3] | activity against Influenza B [4] | IC50 [5, 10] [nM] | IC50 [5, 11] [nM] | activity against MERS-CoV [6] | anti-inflammatory cytokines [7] | expression of cytokine modulators / anti-inflammatory cytokines [7] | expression of pro-inflammatory cytokines [7] | expression of the anti-inflammatory cytokine IL-10 [7] | multiple pro-inflammatory cytokines [7] | pro-inflammatory cytokines [7] | apoptosis by activation of caspase 3 [8] | apoptosis by caspase 3 activation [8] | CC50 [9] [nM] | IC50 ([5]; Severe acute respiratory syndrome coronavirus 2, Vero C1008, read-out: IC50 in an in vitro inhibition assay against SARS-CoV-2) [nM]
1 | O=C(O)[C@H]1O[C@@H](Oc2cc3oc(-c4ccccc4)cc(=O)c3c(O)c2O)[C@H](O)[C@@H](O)[C@@H]1O [Baicalin, baicalin] | active | active | active | active | 5960 | 5960 | active |  |  |  |  |  |  |  |  |  | 
2 | CC(C)=CCc1cc(C(=O)/C=C/c2ccc(O)cc2)c(O)cc1O [Bavachalcone B] | active | active | active | active | 1430 | 1430 | active |  |  |  |  |  |  |  |  |  | 
3 | COc1ccc2cc1Oc1ccc(cc1)C[C@H]1c3c(cc4c(c3Oc3cc5c(cc3OC)CCN(C)[C@@H]5C2)OCO4)CCN1C [Cepharanthine, (14S,27S)-22,33-dimethoxy-13,28-dimethyl-2,5,7,20-tetraoxa-13,28-diazaoctacyclo[25.6.2.2^16,19.1^3,10.1^21,25.0^4,8.0^31,35.0^14,39]nonatri-aconta-1(33),3(39),4(8),9,16(38),17,19(37),21,23,25(36),31,34-dodecaene] | active | active | active | active | 510 | 510 | active | inducing anti-inflammatory cytokines such as IL-10 | activating expression of the anti-inflammatory cytokine IL-10 | inhibited expression of pro-inflammatory cytokines VEGF, IL-6, IL-8, GRO, MIP-1α, MIP-1β and MMP-9 | increasing expression of the anti-inflammatory cytokine IL-10 | suppressed multiple pro-inflammatory cytokines such as IL-1β, TNF-α, IL-6 IL-8, IL-12, MCP-1 and MIP-1α | selectively inhibited pro-inflammatory cytokine, such as VEGF, IL-6, IL-8, GRO, MIP-1α, MIP-1β and MMP-9 | selectively induces apoptosis | induced apoptosis |  | 
4 | CCN(CC)CCCC(C)Nc1ccnc2cc(Cl)ccc12 (stereo not shown) [Chloroquine, chloroquine, reference compound] |  |  |  |  |  |  |  |  |  |  |  |  |  |  |  | > 30000 | 
5 | CN(C)CCCSc1ccccc1NC(=O)/C=C/c1ccccc1 [Cinanserin, cinanserin] | active | active | active | active | 13700 | 13700 | active |  |  |  |  |  |  |  |  |  | 
6 | CCOC(=O)[C@H]1O[C@@H]1C(=O)N[C@@H](CC(C)C)C(=O)NCCC(C)C [E64d (aloxistatin), aloxistatin, reference compound] |  |  |  |  |  |  |  |  |  |  |  |  |  |  |  | > 30000 | 
7 | COc1ccc2cc1Oc1ccc(cc1)C[C@H]1c3cc(c(OC)cc3CCN1C)Oc1c(O)c(OC)cc3c1[C@H](C2)N(C)CC3 [Fangchinoline, (1S,14S)-9,20,25-trimethoxy-15,30-dimethyl-7,23-dioxa-15,30-diazaheptacyclo[22.6.2.2^3,6.1^8,12.1^14,18.0^27,31.0^22,33]hexatriaconta-3(36),4, 6(35),8,10,12(34),18,20,22(33),24,26,31-dodecaen-21-ol] | active | active | active | active | 2050 | 2050 | active |  |  | inhibited expression of pro-inflammatory cytokines VEGF, IL-8, MIP-1β and MMP-9 |  |  | selectively inhibited pro-inflammatory cytokines, such as VEGF, IL-8, GRO, MIP-1β and MMP-9 | selectively induces apoptosis | induced apoptosis |  | 
8 | COc1cc(O)cc(O)c1C(=O)/C=C/c1ccc(O)cc1 [Helichrysetin, (E)-1-(2,4-dihydroxy-6-methoxyphenyl)-3-(4-hydroxyphenyl)prop-2-en-1-one] | active | active | active | active | 10400 | 10400 | active | inducing anti-inflammatory cytokines such as IL-10 | activated expression of cytokine modulator IL-10 | inhibited expression of pro-inflammatory cytokines IL-1α, VEGF, IL-1β, IL-4, IL-5, IL-6, IL-8, IL-12p70, IL-13, MCP-1, MIP-1α, MIP-1β, MMP-9 and TNF-α |  |  | selectively inhibited pro-inflammatory cytokine, such as IL-1α, VEGF, IL-1β, IL-4, IL-5, IL-6, IL-8, IL-12p70, IL-13, MCP-1, MIP-1α, MIP-1β, MMP-9 and TNF-α | selectively induces apoptosis | not observed to induce apoptosis |  | 
9 | CCN(CCO)CCCC(C)Nc1ccnc2cc(Cl)ccc12 (stereo not shown) [Hydroxychloroquine, hydroxychloroquine, reference compound] |  |  |  |  |  |  |  |  |  |  |  |  |  |  |  | > 30000 | 
10 | O=C(/C=C/c1ccc(O)c(O)c1)O[C@H](Cc1ccc(O)c(O)c1)C(=O)O [Rosmarinic acid] | active | active | active | active | 890 |  | active |  |  |  |  |  |  |  |  |  | 890
11 | COc1ccc2cc1Oc1ccc(cc1)C[C@H]1c3cc(c(OC)cc3CCN1C)Oc1c(OC)c(OC)cc3c1[C@H](C2)N(C)CC3 [Tetrandrine, (1S,14S)-9,20,21,25-tetramethoxy-15,30-dimethyl-7,23-dioxa-15,30-diazaheptacyclo[22.6.2.2^3,6.1^8,12.1^14,18.0^27,31.0^22,33]hexatriaconta-3(36),4,6(35),8,10,12(34),18,20,22(33),24,26,31-dodecaene] | active | active | active | active |  |  | active | inducing anti-inflammatory cytokines, such as IL-10 | activating expression of the anti-inflammatory cytokine IL-10 | inhibited expression of pro-inflammatory cytokines VEGF, IL-6, IL-8, MIP-1α and MIP-1β |  |  | selectively inhibited pro-inflammatory cytokine, such as VEGF, IL-6, IL-8, MIP-1α and MIP-1β | selectively induces apoptosis | induced apoptosis |  | 
12 | O=c1cc(-c2ccccc2)oc2cc(O)c(O)c(O)c12 [baicalein, 5,6,7-trihydroxy-2-phenylchromen-4-one] |  |  |  |  |  |  |  | inducing anti-inflammatory cytokines such as IL-10 | activated expression of cytokine modulators IL-10 and IFN-γ | inhibited expression of pro-inflammatory cytokines IL-1α, IL-8, GRO, MCP-1, MIP-1α, MIP-1β, MMP-9 and TNF-α |  |  | selectively inhibited pro-inflammatory cytokine, such as IL-1α, IL-8, GRO, MCP-1, MIP-1α, MIP-1β, MMP-9 and TNF-α | selectively induces apoptosis | induced apoptosis |  | 
13 | O=C(/C=C/c1ccccc1)Nc1ccccc1 [cinnamanilide, (E)-N,3-diphenylprop-2-enamide] |  |  |  |  |  |  |  | inducing anti-inflammatory cytokines such as IL-10 | activated expression of cytokine modulator IL-10 | inhibited expression of pro-inflammatory cytokines IL-1α, VEGF, IL-6, IL-8, IL-13, GM-CSF, MIP-1α, MIP-1β, MMP-9 and RANTES |  |  | selectively inhibited pro-inflammatory cytokine, such as IL-1α, VEGF, IL-6, IL-8, IL-13, GM-CSF, MIP-1α, MIP-1β, MMP-9 and RANTES |  |  |  | 
14 | COc1ccc(-c2coc3cc(O)ccc3c2=O)cc1 [formononetin, 7-hydroxy-3-(4-methoxyphenyl)chromen-4-one] |  |  |  |  |  |  |  | inducing anti-inflammatory cytokines, such as IL-10 and IFN-γ | activated expression of cytokine modulators IL-10 and IFN-γ | inhibited expression of pro-inflammatory cytokines VEGF, IL-6, IL-8, GRO, MCP-1, MIP-1α, MIP-1β, MMP-9 and RANTES |  |  | selectively inhibited pro-inflammatory cytokine, such as VEGF, IL-6, IL-8, GRO, MCP-1, MIP-1α, MIP-1β, MMP-9 and RANTES | selectively induces apoptosis | induced apoptosis |  | 
15 | CC(C)=CCc1cc([C@@H]2CCc3ccc(O)cc3O2)c(CC=C(C)C)c(O)c1O [kazinol A, 4-[(2S)-7-hydroxy-3,4-dihydro-2H-chromen-2-yl]-3,6-bis(3-methylbut-2-enyl)benzene-1,2-diol] |  |  |  |  |  |  |  | inducing anti-inflammatory cytokines such as IL-10 | activated expression of cytokine modulator IL-10 | inhibited expression of pro-inflammatory cytokines IL-1α, IL-4, IL-8, MIP-1β and MMP-9 |  |  | selectively inhibited pro-inflammatory cytokine, such as IL-1α, IL-4, IL-8, MIP-1β and MMP-9 | selectively induces apoptosis | induced apoptosis |  | 
